# Experimental data taken from patent US4594238A (Regents of University of Minnesota, priority 1984, dated 1986).
# Entries after “also recorded” stand apart in the source; their conditions may differ. Read-outs that look alike come from different tables or passages of the source.
# What was measured:
# [1] = test system: Pt/DNA complexes; settings: cited from earlier work
# [2] = thiourea administered prior to the platinum (II); cited from earlier work
# [3] = test system: thyroid hormone production; settings: cited from earlier work
# [4] = Urinary excretion of free and conjugated DDTC; format: in vivo, rats; settings: rat, urine, ip, 500 mg/kg, NaDDTC 500 mg/kg ip
# From the text: Intravenous administration was explored in an attempt to deliver larger quantities of free DDTC anion to the likely site of toxicity in the renal tubule; urinary excretion of DDTC was monitored as a means of estimating changes in tubular levels of free DDTC. The standard assay for DDTC anion utilizes a spectrophotometric determination following reaction with cupric ion to form the colored Cu(DDTC)2 complex. Unfortunately, the affinity of cupric ion for sulfur ligands is such that this metal ion will catalyze the decomposition of the DDTC glucuronide and therefore will not discriminate between free and conjugated DDTC. Ferric ion does react selectively with the free ligand, thereby providing a convenient assay for both free and total DDTC in urine.
# Excretion of free and conjugated NaDDTC in the urine of rats was measured as follows. NaDDTC was administered in selected doses via intraperitoneal or intravenous injection. Rats were then placed in metabolic cages and urine was collected and analyzed at 30 minute intervals. Urine samples (0.1-5.0 ml) were added to 2 ml of a solution containing ferric nitrate (20 mM) and sodium citrate (200 mM). The dark Fe (DDTC)3 complex was extracted into chloroform (4 ml) by vortexing for 5 minutes. The mixture was chilled, centrifuged for 1 minute, and the chloroform layer separated. To this chloroform solution was added saturated aqueous cupric sulfate (2 ml), and the mixture was vortexed for 5 minutes, chilled, and centrifuged for 1 minute. The chloroform solution was separated and the Cu(DDTC)2absorbance measured at 435 nm. Free DDTC was determined by comparison of absorbance to a standard curve. Total DDTC was determined by addition of 0. 05-1.0 ml of urine to 3 ml of saturated cupric sulfate followed by incubation at 45° for 30 minutes. The resulting Cu(DDTC)2 complex was extracted into chloroform and analyzed as described above. DDTC-glucuronide excretion was determined by subtraction of free from total DDTC.
# [5] = rats; cited from earlier work
# [6] = cited from earlier work
# [7] = Protection of rats against DDP toxicity by i.p. NaDDTC (BUN, weight loss, diarrhea, histopathology), Example 1 / Table 1; format: in vivo, Male F344 (Fischer) rats; settings: for Incidence of Diarrhea: DDP […] i.v.; for BUN / Weight Loss: Day 5, DDP […] i.v.
# From the text: Male F344 (Fischer) rats (average weight, 150 g) were obtained from the Charles River Breeding Laboratory. They were divided into groups of four rats, placed in methacrylate cages, and given National Institute of Health chow for rodents and water ad lib, for 7 days. Average weight of the rats was 180 g (range, 160-200 g) when injected.
# Tetraethylthiuram disulfide (disulfiram) was obtained from Sigma Chemical Co., St. Louis MO. […] Trav. Chim. 70:917 (1951); immediately prior to injection, it was dissolved in sterile water at a concentration of 100 mg/ml. Sodium bicarbonate was prepared in sterile water at a concentration of 50 mg/ml. All injections were carried out under brief ether anesthesia.
# Otherwise, weight and BUN were determined at 5 days after injection, reportedly the time of maximal observed toxicity. Evidence of gastrointestinal toxicity was obtained qualitatively by noting the presence or absence of diarrhea 3-5 days after injection.
# Randomly selected animals were sacrificed at 5 days after injection for study of histopathologic changes in the kidney and to note the presence or absence of hemorrhagic enteritis. Kidneys were removed, placed in Zenker's fixative, embedded in paraffin, sectioned at 6 μm, and stained with hematoxylin and eosin.
# [8] = test system: Rat mammary tumor 13762; experiment: Comparative tumor response to DDP with and without NaDDTC rescue, Example 2; format: in vivo, Female F344 (Fischer) rats
# Experimental: (§1) Female F344 (Fischer) rates, initial weight 100-150 g, were obtained from the Charles River Breeding Laboratory, Wilmington, MA. They were housed in methacrylate cages and given Purina rat chow and water ad libitum for at least one week. Lean weight of the rats were 150 g at the onset of experiments unless otherwise noted.
# (§2) Mammary Tumor 13762 was obtained in the form of an implanted tumor in a female F344 rat. All intravenous injections were carried out under brief ether anesthesia.
# Tumor inoculation was carried out as follows: two rats bearing tumors having a mean diameter of 2.5-3.5 cm were sacrificed using ether anesthesia. The tumors were excised immediately, finely minced, combined, and resuspended in 20-40 ml of normal saline. This suspension was filtered through a gauze pad to remove coarse pieces of tissue and the resulting suspension inoculated subcutaneously (0.2-0.5 ml/injection) into the left flank of each rat.
# [9] = Comparative nephrotoxicity: low-dose i.v. vs high-dose i.p. NaDDTC rescue after DDP, Example 2; format: in vivo, Female F344 (Fischer) rats; settings: for Kidney sections / Day 5 BUN (mean ±SEM) / Diarrhea / Weight loss on day 5: DDP 6 mg/kg i.v.
# Experimental: as §1, §2
# [10] = Reduction of toxicity (including bone marrow toxicity) of platinum compounds, Example 4; format: in vivo; settings: platinum compounds of drawing 16, X=OH or H2O
# [11] = DDTC 500 mg/kg ip 1/2 hour after DDP, n=4
# [12] = DDTC 500 mg/kg ip 1 hour after DDP, n=4
# [13] = DDTC 500 mg/kg ip 2 hours after DDP, n=4
# [14] = DDTC 750 mg/kg ip 0 hours after DDP, n=12
# [15] = DDTC 750 mg/kg ip 3/4 hour after DDP, n=5
# [16] = DDTC 750 mg/kg ip 1 hour after DDP, n=16
# [17] = DDTC 750 mg/kg ip 2 hours after DDP, n=14
# [18] = DDTC 750 mg/kg ip 3 hours after DDP, n=10
# [19] = DDTC 750 mg/kg ip 4 hours after DDP, n=7
# [20] = DDTC 750 mg/kg ip 6 hours after DDP, n=5
# [21] = DDTC 750 mg/kg ip at -1/2 hour (30 minutes before DDP), n=4
# [22] = DDTC 750 mg/kg ip, rescue time printed 11/2 hours after DDP, n=15
# [23] = NaDDTC administered between 1 and 4 hours after DDP
# [24] = NaDDTC immediately after DDP (time=0 hour)
# [25] = DDP 2 mg/kg i.v., NaDDTC 100 mg/kg i.v.
# [26] = DDP 2 mg/kg, DDTC 750 mg/kg ip 2 hours later
# [27] = DDP 8 mg/kg with DDTC rescue 750 mg/kg ip
# [28] = NaDDTC 100 mg/kg i.v. 2 hours after DDP
# [29] = NaDDTC 750 mg/kg i.p. 2 hours after DDP
structure (smiles),measurement,setting,value
NC(N)=S [thiourea],Reversal of Pt/DNA complexing,[1],does reverse Pt/DNA complexing
same,Efficacy of platinum (II),[2],Decreased efficacy of platinum (II)
same,Inhibition of thyroid hormone production,[3],reported to inhibit thyroid hormone production
CCN(CC)C(=S)[S][Na],dose excreted at 2 h,"[4]; within 2 hours, read-out: Free ligand in urine, of the initial dose",< 0.1%
same,dose excreted at 2 h,"[4]; read-out: Total DDTC excreted by the kidneys within 2 hours, of the dose given",18 to 20%
same,LD50,[5],"at least 1,500 mg/kg"
same,Solubility in alcohol,[6]; alcohol,also soluble in alcohol
same,Solubility in water,[6]; water,"highly soluble in water, e.g. in molar quantities"
"CCN(CC)C(=S)[S-].[Na+] [DDTC, sodium diethyldithiocarbamate]",Incidence of Diarrhea,[7]; DDTC 750 mg/kg ip 0 hours after DDP,0/6
same,Incidence of Diarrhea,[7]; DDTC 750 mg/kg ip 3/4 hour after DDP,0/5
same,Incidence of Diarrhea,[7]; DDTC 750 mg/kg ip 1 hour after DDP,0/8
same,Incidence of Diarrhea,[7]; DDTC 750 mg/kg ip 2 hours after DDP,0/14
same,Incidence of Diarrhea,[7]; DDTC 750 mg/kg ip 6 hours after DDP,2/5
same,Incidence of Diarrhea,"[7]; DDTC 750 mg/kg ip 6 hours after DDP, listed as NaDDTC",two of the five
same,BUN,[7]; [11],152 ± 20 mg/dL
same,Weight Loss,[7]; [11],4 ± 2%
same,BUN,[7]; [12],90 ± 5 mg/dL
same,Weight Loss,[7]; [12],4 ± 1%
same,BUN,[7]; [13],72 ± 11 mg/dL
same,Weight Loss,[7]; [13],2 ± 2%
same,BUN,[7]; [14],214 ± 21 mg/dL
same,Weight Loss,[7]; [14],9 ± 1%
same,BUN,[7]; [15],56 ± 9 mg/dL
same,Weight Loss,[7]; [15],8 ± 2%
same,BUN,[7]; [16],63 ± 4 mg/dL
same,Weight Loss,[7]; [16],13 ± 1%
same,BUN,[7]; [17],95 ± 9 mg/dL
same,Weight Loss,[7]; [17],15 ± 1%
same,BUN,[7]; [18],77 ± 8 mg/dL
same,Weight Loss,[7]; [18],10 ± 1%
same,BUN,[7]; [19],106 ± 8 mg/dL
same,Weight Loss,[7]; [19],14 ± 1%
same,BUN,[7]; [20],209 ± 44 mg/dL
same,Weight Loss,[7]; [20],18 ± 2%
same,BUN,[7]; [21],418 ± 43 mg/dL
same,Weight Loss,[7]; [21],18 ± 1%
same,BUN,[7]; [22],62 ± 3 mg/dL
same,Weight Loss,[7]; [22],5 ± 1%
same,Reduction in BUN or weight loss,[7]; NaDDTC 6 hours after DDP,failed to demonstrate significant reduction either in BUN or weight loss
same,Rescue efficacy,[7]; NaDDTC 6 hours after DDP,only minimal rescue efficacy (if any)
same,Diarrhea,[7]; [23],Diarrhea was not observed
same,"Kidney sections, histopathology",[7]; [23],barely discernible pale band of mild tubule degeneration in the outer zone of the outer medullary stripe
same,"Necropsy, small intestine",[7]; [23],grossly normal small intestine
same,Reduction in BUN and weight loss,[7]; [23],Marked reduction
same,Decrease in weight loss,[7]; [24],significant decrease in weight loss
same,Reduction of BUN levels,[7]; [24],without reduction of BUN levels
same,Protection from nephrotoxic effects of DDP,"[7]; NaDDTC ip 500-750 mg/kg, DDP doses as high as 8 mg/kg",would afford protection from the nephrotoxic effects of DDP
same,Adverse effects on tumor response to DDP,[8]; [25],no adverse effects
same,"Initial response, control vs intravenous rescue group",[8]; [25],Initial response was identical in both groups
same,Rats with relapse between days 25 and 30,"[8]; DDP 2 mg/kg i.v., NaDDTC 100 mg/kg i.v. 2 hours after DDP, n=8",2/8
same,Other (non-relapsed) rats through day 50,"[8]; DDP 2 mg/kg i.v., NaDDTC 100 mg/kg i.v., n=8",essentially free of tumor through day 50
same,"Minimum tumor diameter, day 23","[8]; DDP 2 mg/kg i.v., NaDDTC 750 mg/kg i.p. 2 hours after DDP, n=11",1.3 cm
same,Rats with relapse by day 30,"[8]; DDP 2 mg/kg i.v., NaDDTC 750 mg/kg i.p., n=11",9/11
same,Mean tumor diameter by day 30,"[8]; DDP 2 mg/kg i.v., NaDDTC 750 mg/kg i.p., relapsed rats",2.2 cm
same,Disappearance of tumor,[8]; [26],disappearance of tumor was not observed
same,Initial response versus unrescued group,[8]; [26],identical to that of the unrescued group
same,Mean minimum tumor diameter at day 21,[8]; [26],1.2 cm
same,Mean tumor diameter at day 30,[8]; [26],3.0 cm
same,Relapse and subsequent tumor growth versus no rescue,[8]; [26],earlier onset of relapse and more rapid subsequent tumor growth
same,Deaths,[8]; [27],no deaths
same,Tumor-free rats by day 28,[8]; [27],1/8
same,Initial tumor response with or without NaDDTC rescue,"[8]; DDP 2, 4, and 8 mg/kg, NaDDTC 750 mg/kg ip",identical with or without NaDDTC rescue
same,Tumor response at DDP 4 and 8 mg/kg versus 2 mg/kg,"[8]; DDP 4 and 8 mg/kg, DDTC rescue 750 mg/kg ip",Qualitatively similar results
same,Local recurrence and tumor growth,[8]; NaDDTC 750 mg/kg ip,locally recurring tumors recur earlier and grow more rapidly; also recorded: local recurrence commenced earlier and tumors grew more rapidly
same,Effect of ip rescue on initial tumor response,[8]; ip route of rescue,does not seem to have any significant adverse effect upon initial tumor response
same,Kidney sections,[9]; NaDDTC 100 mg/kg i.v.,mild hydropic changes with occasional evidence of degeneration
same,Day 5 BUN (mean ±SEM),[9]; [28],43±5 milligrams per deciliter
same,Diarrhea,[9]; [28],not observed
same,Weight loss on day 5,[9]; [28],14%
same,Kidney sections,[9]; NaDDTC 750 mg/kg i.p.,mild hydropic changes with occasional evidence of degeneration
same,Day 5 BUN (mean ±SEM),[9]; [29],73±4 milligrams per deciliter
same,Diarrhea,[9]; [29],not observed
same,Weight loss on day 5,[9]; [29],9%
same,Inhibition of platinum-induced nephrotoxicity,[9]; administered intravenously,effectively inhibit platinum-induced nephrotoxicity without deleterious effects on tumor response
same,"Protection against nephrotoxicity, intravenous vs intraperitoneal",[9]; low-dose i.v. vs. high-dose i.p. DDTC rescue,essentially equivalent for both routes
same,Reducing the toxicity (including bone marrow toxicity) of platinum compounds,[10],effective in reducing the toxicity (including bone marrow toxicity)
